Assay results reported in patent US20100150948A1, “MATERIALS AND METHODS FOR IMPROVED IMMUNOGLYCOPROTEINS” (TRUBION PHARMACEUTICALS, INC., priority 2006, published 2010).

Tests used:
[1] = test system: CHO cells expressing TRU-016; assay: Culturing CHO host cells with carbohydrate modifier: cell growth and viability; assay type: cell-based, Chinese hamster; conditions: castanospermine up to 1000 μM, all time periods up to 144 hours
Method: For shake flask runs, log phase host cells were seeded in shake flasks at 100,000 cells/ml with carbohydrate modifier at the concentration to be tested, and optionally with methotrexate (MTX) @ 50 nM
Cells were seeded at 3×10E6/mL in 1350 mL of Ex-Cell 302 culture media (SATC Biosciences; with added non-essential amino acids, pyrucate, L-glutamine, pen/strep, HT Supplement and insulin, all from Invitrogen) at t=0 and brought to 5 L total volume at T>=72 hours. The cells were incubated at 37° C. and 5% carbon dioxide and monitored for growth and viability daily starting at day 6-7. Supernatants were typically harvested at day 10-12 when cell viability dropped below 60%.
Na-Azide was added to 0.02%, cells were removed by centrifugation and supernatant was filter sterilized through a 0.22 uM filter. Some assays described in other examples herein were performed on the supernatants as indicated, while other assays were performed on material that underwent further protein A purification. […] Cells were incubated at 37° C. and 5% carbon dioxide and monitored daily for growth and viability. […]

CD37 = assay: Binding of TRU-016 to CD37 expressing Daudi cells; set-up: species or system human; conditions: CS 25-800 μM in culture
Method: The cells are then incubated with a FITC-conjugated goat anti-human IgG Fc specific antibody (Caltag H 10501). This antibody will bind to the Fc region of the human IgG chain of TRU-016 bound to the cells. The antibody is diluted 1:50 in FACS buffer and 100 μL is added to each well. The plate is incubated at 4° C. in the dark for 45 minutes. Any unbound FITC-labeled antibody is removed by adding 100 μL of FACS buffer to each well, centrifuging at 250×g for 3 minutes at 15° C. followed by removal of supernatant. This is followed by a second wash with 200 μL/well FACS buffer. The cells are resuspended with 200 μL/well 2% paraformaldehyde and stored at 4° C. overnight. Each sample's bound fluorescence is measured on a BD FACSCalibur flow cytometry system and analyzed using Cell Quest Pro software (Becton Dickinson, ver 5.2). The GeoMean fluorescence intensity for each sample is plotted relative to the TRU-016 concentration. A dose response curve is generated and fit to a 4-parameter logistic (4-PL) curve using the SoftMax Pro software (Molecular Devices, ver 5.0.1). Titrations of TRU-016 are utilized to create a dose response curve of the untreated control and CS treated samples for comparison.

Ramos B cells = assay: CDC activity, propidium iodide flow cytometry with human serum; assay type: cell-based; conditions: TRU-016 from CHO cells cultured with 200 μM DMJ, 10 μM kifenunsine or 200 μM castanospermine
Method: To determine the CDC activity of TRU-016 purified protein produced according to Example 2, Ramos B cells were suspended in Iscoves (Gibco/Invitrogen, Grand Island, N.Y.) at 5×10^5 cells/well in 75 μl. TRU-016 (75 μl) were added to the cells at twice the concentrations indicated. Binding reactions were allowed to proceed for 45 minutes prior to centrifugation and washing in serum-free Iscoves. Cells were resuspended in Iscoves with human serum (containing complement) at various concentrations. The cells were incubated 60 minutes at 37° C. Cells were washed by centrifugation and resuspended in staining media with 0.5 μg/ml propidium iodide. Samples were incubated 15 minutes at room temperature in the dark prior to analysis by flow cytometry using a FACsCalibur and CellQuest software (Becton Dickinson).

[2] = test system: CD37-expressing Daudi cancer B-cell line; assay: Antibody Dependent Cellular Cytotoxicity (ADCC) assay, 51Cr release, PBL effector cells; assay type: cell-based, human; conditions: TRU-016 treated with CS over a range of 100 μM-800 μM final concentration
Method: TRU-016 produced as described in Example 8 is incubated with the CD37-expressing Daudi cancer B-cell line in conjunction with primary human peripheral blood lymphocytes (PBL's) effector cells to assess ADCC activity.
Daudi target cells (5×10̂6) are added to a 15 ml conical tube and then centrifuged at 250×g for 5 minutes at 20° C. and the supernatant removed. The cell pellet is resuspended by the addition of 0.3 mCi Chromium-51 (^51Cr, GE Healthcare, CJ51). The cells are incubated for 75 minutes at 37° C. with 5% CO2, allowing the cells to incorporate the radioactive isotope. The cells are then washed three times to remove any unincorporated ^51Cr. This is done by adding 10 mL of complete media—IMDM (Gibco) with 10% FBS (Gibco)—to the tube, centrifuging at 250×g for 5 minutes at 20° C. followed by removal of supernatant. The final resuspension is in 11.5 mL of complete media. TRU-016 is diluted in complete media, at concentrations that are able to generate maximal to background levels of cell lysis (500 ng/mL-0.005 ng/mL). These titrations are plated out, 50 μL/well, in a round bottom 96 well plate. The ^51Cr labeled target cells are added to the dose titrations of TRU-016 at 50 μL/well and the control wells (control media without TRU-016). PBL's are isolated from fresh heparinized whole blood by density gradient centrifugation using Lymphocyte Separation Media as per protocol (LSM, MP Biomedical, 50494/36427). […] The assay is incubated for 4.5-5 hours at 37° C., 5% CO2. The effector cells lyse the target cells relative to the TRU-016 concentration, releasing a proportional amount of ^51Cr into the assay supernatant. Following the incubation the plate is centrifuged at 250×g for 3 minutes at 20° C. A 25 μL volume of cell-free supernatant is removed from all wells to a scintillation plate (Perkin Elmer 6005185) and dried overnight. The amount of ^51Cr isotope in each well of the scintillation plate is measured using a Topcount plate reader (Perkin Elmer, C9904V0). The data are expressed as percent of specific release. Specific release is calculated as:
(Sample value−Spontaneous value)/(Maximum value−Spontaneous value)*100% • Spontaneous=amount of ^51Cr released from target cell only • Maximum release=amount of ^51Cr released from targets treated with detergent lysing agent • Background Control=amount of ^51Cr released from target cells+effector cells (No TRU-016)
A dose response is generated and fit to a 4-parameter logistic curve using SoftMax Pro software (Molecular Devices, ver 5.0.1). Titrations of TRU-016 are utilized to create dose response curves of test and reference material for comparison. The EC50 values for the treated articles are compared to the untreated control (no CS) to determine the percent increase in ADCC activity.

Compound	cell counts [1]	percent cell viability [1]	dose response binding curves of TRU-016 to CD37 expressing cells, compared with untreated TRU-016 sample (CD37)	CDC compared with protein produced by untreated CHO cells (Ramos B cells)	ADCC activity relative to untreated TRU-016 [2]
O[C@H]1[C@H](O)[C@@H](O)CN2CC[C@H](O)[C@H]12 [castanospermine]	did not affect	did not affect	did not alter	–	–
TRU-016: recombinant single chain protein (SMIP) that binds CD37; G28-1 binding domain, modified hinge, human IgG1 CH2 and CH3; SEQ ID NO: 2	–	–	–	similar	significantly increased
